Where “and” joins values, the source holds several entries; their conditions need not be identical. Equal values may be shown once. Where a name gives a salt, the structure may show the parent alone.
Experiments:
Type in all cases: physicochemical
[1] = Stability of crystal forms under stability test conditions (appearance, XRPD, HPLC)
Protocol: The samples were placed under the stability conditions shown in the following table, sampling was performed at the corresponding time points, and the samples were subjected to appearance and XRPD tests. […] The stability results obtained are recorded in the following table. […] The samples were placed under the stability test conditions shown in the following table, sampling was performed at different time points, and the samples were subjected to the XRPD test. […] The samples were placed in an open state under the stability test conditions of 40° C./75% RH and 90% RH; and the samples were placed in a closed state at 60° C. in a light box (the test samples in the dark were placed in the same manner as the illumination test samples, and the treatment was performed in the dark). Sampling was performed at different time points, and the samples were subjected to the XRPD test. […] The samples were placed under the stability conditions shown in the following table, sampling was performed at the corresponding time points, and the samples were subjected to appearance and XRPD tests. […] The stability results obtained are recorded in the following table.

[2] = Polymorph screening test, suspension method (crystal form by XRPD after stirring in solvent); settings: for Crystal form (XRPD) / Crystal form (XRPD)/85° C.: mesylate screening, 3 days
Protocol: (or 50° C.) for 3 days in the dark and centrifuged to remove the supernatant; the resulting precipitate was dried under vacuum (25° C., −0.1 MPa); and the resulting solid was collected and subjected to the XRPD test. The results are as follows:
(or 50° C./80° C.) for 3 days in the dark and centrifuged to remove the supernatant; and the resulting precipitate was dried under vacuum (25° C., −0.1 MPa).
(or 50° C.) for 3 days in the dark and centrifuged to remove the supernatant; and the resulting precipitate was dried under vacuum (25° C., −0.1 MPa).

[3] = Polymorph screening test, diffusion method (crystal form by XRPD); settings: mesylate screening, diffusion at room temperature
[4] = Solubility of mesylate crystal form A in buffers with different pH values at 37° C.
Protocol: Suspension states at 15 min, 2 h, 4 h, and 24 h were recorded; and different sample solutions at 15 min, 2 h, 4 h, and 24 h were collected and added to 1.5 mL centrifuge tubes. The suspensions were centrifuged at 12000 rpm for 2 min to obtain supernatants, and the supernatants were subjected to 2-fold dilution to obtain the sample solutions (the solutions were subjected to 10-fold dilution if the samples were dissolved completely). The residual substrates were centrifuged and subjected to the XRPD test.

[5] = Dynamic vapor sorption (DVS) hygroscopicity test; settings: 25° C. and 80% RH
From the text: In the present disclosure, the DVS test parameters are set as follows: [table]

[6] = Polymorph screening test, suspension method (crystal form by XRPD after stirring in solvent); settings: mesylate screening, suspension in Toluene, 3 days

Cc1cc(Nc2ncc(Cl)c(Nc3ccccc3S(=O)(=O)C(C)C)n2)c(OC(C)C)cc1C1=CCN(C2CCOCC2)CC1 [one equivalent of mesylate crystal form A]
Crystal form result by XRPD test ([1]; 25° C./60% RH, 1 month): Crystal form A | Crystal form result by XRPD test ([1]; 25° C./60% RH, 2 months): Crystal form A | Crystal form result by XRPD test ([1]; 25° C./60% RH, 3 months): Crystal form A | Crystal form result by XRPD test ([1]; 25° C./60% RH, 6 months): Crystal form A | Crystal form result by XRPD test ([1]; 25° C./60% RH, 5 days): Crystal form A | Crystal form result by XRPD test ([1]; 25° C./60% RH, 10 days): Crystal form A | Crystal form result by XRPD test ([1]; 40° C./75% RH, 1 month): Crystal form A | Crystal form result by XRPD test ([1]; 40° C./75% RH, 2 months): Crystal form A | Crystal form result by XRPD test ([1]; 40° C./75% RH, 3 months): Crystal form A | Crystal form result by XRPD test ([1]; 40° C./75% RH, 6 months): Crystal form A | Crystal form result by XRPD test ([1]; 40° C./75% RH, 5 days): Crystal form A | Crystal form result by XRPD test ([1]; 40° C./75% RH, 10 days): Crystal form A | Crystal form result by XRPD test ([1]; 60° C., 1 month): Crystal form A | Crystal form result by XRPD test ([1]; 60° C., 2 months): Crystal form A | Crystal form result by XRPD test ([1]; 60° C., 3 months): Crystal form A | Crystal form result by XRPD test ([1]; 60° C., 6 months): Crystal form A | Crystal form result by XRPD test ([1]; 60° C., 5 days): Crystal form A | Crystal form result by XRPD test ([1]; 60° C., 10 days): Crystal form A | Crystal form result by XRPD test ([1]; 90% RH, 1 month): Crystal form A | Crystal form result by XRPD test ([1]; 90% RH, 2 months): Crystal form A | Crystal form result by XRPD test ([1]; 90% RH, 3 months): Crystal form A | Crystal form result by XRPD test ([1]; 90% RH, 5 days): Crystal form A | Crystal form result by XRPD test ([1]; 90% RH, 10 days): Crystal form A | stability of crystal form in solvent, suspension method ([2]; ethanol, isopropanol, ethyl acetate, isopropyl acetate, methyl tert-butyl ether, tetrahydrofuran, N-methylpyrrolidone, methyl acetate, 2-methyltetrahydrofuran, cyclohexane, n-hexane, toluene, or n-heptane): relatively good stability | crystal form when stirred in solvent ([2]; ethanol, isopropanol, ethyl acetate, isopropyl acetate, methyl tert-butyl ether, tetrahydrofuran, N-methylpyrrolidone, methyl acetate, 2-methyltetrahydrofuran, cyclohexane, n-hexane, toluene, or n-heptane at 25-50° C.): remained stable | Crystal form (XRPD) ([2]; suspension in 1,4-Dioxane, 25° C.): Crystal form A | Crystal form (XRPD) ([2]; suspension in 1,4-Dioxane, 50° C.): Crystal form E | Crystal form (XRPD) ([2]; suspension in Acetone-water 1:1, 25° C.): Clear solution | Crystal form (XRPD) ([2]; suspension in Acetone-water 1:1, 50° C.): Clear solution | Crystal form (XRPD) ([2]; suspension in Acetonitrile-water 1:1, 25° C.): Clear solution | Crystal form (XRPD) ([2]; suspension in Acetonitrile-water 1:1, 50° C.): Clear solution | Crystal form (XRPD) ([2]; suspension in Dichloromethane, 25° C.): No solid sample | Crystal form (XRPD) ([2]; suspension in Dichloromethane, 50° C.): No solid sample | Crystal form (XRPD) ([2]; suspension in Dichloromethane/acetone (v/v, 1:1), 25° C.): Crystal form A | Crystal form (XRPD) ([2]; suspension in Dichloromethane/acetone (v/v, 1:1), 50° C.): No solid sample | Crystal form (XRPD) ([2]; suspension in Dichloromethane/methanol (v/v, 1:1), 25° C.): Clear solution | Crystal form (XRPD) ([2]; suspension in Dichloromethane/methanol (v/v, 1:1), 50° C.): No solid sample | Crystal form (XRPD)/85° C. ([2]; suspension in Dioxane): Crystal form A | Crystal form (XRPD)/85° C. ([2]; suspension in MIBK): Crystal form A | Crystal form (XRPD) ([2]; suspension in Methanol-water 1:1, 25° C.): Crystal form B | Crystal form (XRPD) ([2]; suspension in Methanol-water 1:1, 50° C.): Clear solution | Crystal form (XRPD) ([2]; suspension in Methyl tert-butyl ether, 25° C.): Crystal form A | Crystal form (XRPD) ([2]; suspension in Methyl tert-butyl ether, 50° C.): Crystal form A | Crystal form (XRPD) ([2]; suspension in Tetrahydrofuran, 25° C.): Crystal form A | Crystal form (XRPD) ([2]; suspension in Tetrahydrofuran, 50° C.): Crystal form A | Crystal form (XRPD) ([2]; suspension in Toluene, 25° C.): Crystal form A | Crystal form (XRPD) ([2]; suspension in Toluene, 50° C.): Crystal form A | Crystal form (XRPD) ([2]; suspension in Water, 25° C.): Crystal form B | Crystal form (XRPD) ([2]; suspension in Water, 50° C.): Crystal form B | Crystal form (XRPD) ([2]; suspension in n-Heptane, 25° C.): Crystal form A | Crystal form (XRPD) ([2]; suspension in n-Heptane, 50° C.): Crystal form A | Crystal form (XRPD)/85° C. ([2]; suspension in n-Heptane): Crystal form A | crystal form when stirred in solvent ([2]; toluene or n-heptane at 25-85° C.): remained stable | Crystal form (XRPD) ([3]; good solvent Dichloromethane, poor solvent Acetone): Crystal form A | Crystal form (XRPD) ([3]; good solvent Dichloromethane, poor solvent Acetonitrile): Crystal forms A + B | Crystal form (XRPD) ([3]; good solvent Dichloromethane, poor solvent Ethanol): Crystal form A | Crystal form (XRPD) ([3]; good solvent Dichloromethane, poor solvent Ethyl acetate): Crystal forms A + B | Crystal form (XRPD) ([3]; good solvent Dichloromethane, poor solvent Tetrahydrofuran): Crystal forms A + B | Crystal form (XRPD) ([3]; good solvent Dimethyl sulfoxide, poor solvent Acetone): Clear solution | Crystal form (XRPD) ([3]; good solvent Dimethyl sulfoxide, poor solvent Acetonitrile): Clear solution | Crystal form (XRPD) ([3]; good solvent Dimethyl sulfoxide, poor solvent Ethanol): Clear solution | Crystal form (XRPD) ([3]; good solvent Dimethyl sulfoxide, poor solvent Ethyl acetate): Clear solution | Crystal form (XRPD) ([3]; good solvent Dimethyl sulfoxide, poor solvent Tetrahydrofuran): Clear solution | Crystal form (XRPD) ([3]; good solvent Methanol, poor solvent Acetone): Clear solution | Crystal form (XRPD) ([3]; good solvent Methanol, poor solvent Acetonitrile): Clear solution | Crystal form (XRPD) ([3]; good solvent Methanol, poor solvent Ethyl acetate): Clear solution | Crystal form (XRPD) ([3]; good solvent Methanol, poor solvent Tetrahydrofuran): Clear solution | Crystal form (XRPD) ([3]; good solvent N,N-Dimethylformamide, poor solvent Acetone): Clear solution | Crystal form (XRPD) ([3]; good solvent N,N-Dimethylformamide, poor solvent Acetonitrile): Clear solution | Crystal form (XRPD) ([3]; good solvent N,N-Dimethylformamide, poor solvent Ethanol): Clear solution | Crystal form (XRPD) ([3]; good solvent N,N-Dimethylformamide, poor solvent Ethyl acetate): Clear solution | Crystal form (XRPD) ([3]; good solvent N,N-Dimethylformamide, poor solvent Tetrahydrofuran): Clear solution | Concentration ([4]; 0.01N hydrochloric acid, 15 min): >6 | Concentration ([4]; 0.01N hydrochloric acid, 2 h): >6 | Concentration ([4]; 0.01N hydrochloric acid, 4 h): >6 | Concentration ([4]; 0.01N hydrochloric acid, 24 h): >6 | Concentration ([4]; Pure water, 15 min): 0.747 | Concentration ([4]; Pure water, 2 h): 4.930 | Concentration ([4]; Pure water, 4 h): 4.657 | Concentration ([4]; Pure water, 24 h): 4.567 | Concentration ([4]; pH 1.2, 15 min): >6 | Concentration ([4]; pH 1.2, 2 h): >6 | Concentration ([4]; pH 1.2, 4 h): >6 | Concentration ([4]; pH 1.2, 24 h): >6 | Concentration ([4]; pH 4.5, 15 min): >6 | Concentration ([4]; pH 4.5, 2 h): 0.044 | Concentration ([4]; pH 4.5, 4 h): 0.046 | Concentration ([4]; pH 6.8, 15 min): 0.003 | Concentration ([4]; pH 6.8, 2 h): 0.005 | Concentration ([4]; pH 6.8, 4 h): 0.005 | Concentration ([4]; pH 6.8, 24 h): 0.015 | hygroscopic weight gain (DVS curve) [5]: 0.31±0.005% and 0.31% | Crystal form (XRPD)/85° C. [6]: Crystal form A

— patent US20260217692A1 (Ascentage Pharma (Suzhou) Co., Ltd., priority 2023, published 2026)
